Assay results reported in US6458824B1, “Solid preparation” (Dainippon Pharmaceutical Co., Ltd., priority 1999, dated 2002).

Key:
Assay type in all cases: cell-based
[1] = biological target: T1, human β3-adrenergic receptor (Homo sapiens, UniProt P13945); experiment: cAMP accumulation in CHO/pKREX10-36 cells highly expressing human β3-adrenergic receptor
T1 construct: expressed in transfected cells; host or cells: CHO (clone CHO/pKREX10-36)
Method: (§1) The cells were peeled off by incubation with phosphate-buffered saline containing 0.5 mM EDTA at 37° C. for 10 minutes after the medium was removed. The CHO/pKREX10-36 cells were collected by centrifugation, and suspended in Hanks' buffer (ICN Biomedicals) containing 1 mM L-ascorbic acid and 1 mM 3-isobutyl-1-methylxanthine at the concentration of about 5×10^5 cells/ml. This suspension (100 μl) and a test compound were mixed in the same buffer (500 μl) and incubated at 37° C. for 30 minutes, followed by boiling for 5 minutes to terminate the reaction. After centrifugation of the reaction mixture, the amount of cAMP in the supernatant was measured by using cAMP EIA System (Amersham).

[2] = biological target: T2, human β2-adrenergic receptor (Homo sapiens, UniProt P07550); experiment: cAMP accumulation in CHO/pKREX21-8 cells highly expressing human β2-adrenergic receptor
T2 construct: expressed in transfected cells; host or cells: CHO (clone CHO/pKREX21-8)
Method: as §1
(§2) Similarly, the amount of cAMP was measured in the same manner by using CHO/pKREX21-8 for highly expressing human β2-adrenergic receptor, or by using CHO/pKREX23-30 for highly expressing human β1-adrenergic receptor instead of the CHO/pKREX10-36 for highly expressing human β3-adrenergic receptor.

[3] = biological target: T3, human β1-adrenergic receptor (Homo sapiens, UniProt P08588); experiment: cAMP accumulation in CHO/pKREX23-30 cells highly expressing human β1-adrenergic receptor
T3 construct: expressed in transfected cells; host or cells: CHO (clone CHO/pKREX23-30)
Method: as §1, §2

T3 sequence (P08588 whole entry): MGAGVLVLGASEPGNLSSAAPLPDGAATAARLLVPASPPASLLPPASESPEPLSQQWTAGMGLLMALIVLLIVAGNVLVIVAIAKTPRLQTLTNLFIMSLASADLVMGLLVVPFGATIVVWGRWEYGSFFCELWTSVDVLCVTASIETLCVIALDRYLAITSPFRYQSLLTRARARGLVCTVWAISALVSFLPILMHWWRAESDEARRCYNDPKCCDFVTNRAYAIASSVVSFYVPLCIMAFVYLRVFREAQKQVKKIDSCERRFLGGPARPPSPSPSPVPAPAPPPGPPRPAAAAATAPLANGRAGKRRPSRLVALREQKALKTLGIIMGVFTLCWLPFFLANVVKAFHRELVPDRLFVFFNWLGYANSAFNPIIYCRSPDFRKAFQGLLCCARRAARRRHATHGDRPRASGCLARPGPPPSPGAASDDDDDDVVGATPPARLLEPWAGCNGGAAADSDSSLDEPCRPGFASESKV
T2 sequence (P07550 whole entry): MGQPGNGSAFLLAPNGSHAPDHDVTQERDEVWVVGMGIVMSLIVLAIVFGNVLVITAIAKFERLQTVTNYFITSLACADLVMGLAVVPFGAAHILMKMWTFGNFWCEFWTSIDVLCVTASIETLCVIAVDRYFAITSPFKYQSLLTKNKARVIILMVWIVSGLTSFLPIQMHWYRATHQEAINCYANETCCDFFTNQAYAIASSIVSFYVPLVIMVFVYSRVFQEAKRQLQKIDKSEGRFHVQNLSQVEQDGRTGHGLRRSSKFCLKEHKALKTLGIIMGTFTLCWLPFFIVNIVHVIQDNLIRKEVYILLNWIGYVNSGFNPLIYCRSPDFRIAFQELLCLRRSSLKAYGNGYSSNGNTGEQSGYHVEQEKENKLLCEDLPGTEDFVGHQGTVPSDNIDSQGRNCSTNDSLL
T1 sequence (P13945 whole entry): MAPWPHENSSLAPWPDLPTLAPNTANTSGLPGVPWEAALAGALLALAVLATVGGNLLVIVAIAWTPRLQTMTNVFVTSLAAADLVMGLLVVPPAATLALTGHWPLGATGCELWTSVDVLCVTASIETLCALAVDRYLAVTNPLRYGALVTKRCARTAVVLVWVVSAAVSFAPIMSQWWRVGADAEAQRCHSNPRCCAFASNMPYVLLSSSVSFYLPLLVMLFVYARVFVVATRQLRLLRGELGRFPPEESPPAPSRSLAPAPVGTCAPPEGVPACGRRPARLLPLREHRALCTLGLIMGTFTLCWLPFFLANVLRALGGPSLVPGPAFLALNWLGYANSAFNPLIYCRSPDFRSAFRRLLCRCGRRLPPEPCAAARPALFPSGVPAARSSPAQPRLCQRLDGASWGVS

C[C@H](Cc1c[nH]c2c(OCC(=O)O)cccc12)NC[C@H](O)c1cccc(Cl)c1 [Compound A, [3-[(2R)-[[(2R)-(3-chlorophenyl)-2-hydroxyethyl]amino]propyl]-1H-indol-7-yloxy]acetic acid]
EC50 ([1]; cAMP accumulation, CHO/pKREX10-36, 37° C. 30 minutes): 0.27 nM | stimulating activity of human β3-adrenergic receptor (in words) ([1]; conclusion from Table 1): potent | Emax ([1]; relative maximal response, 10^-5 M (−)-isoproterenol = 100%, read-out: β3-receptor I.A. (intrinsic activity)): 110% | EC50 ([2]; cAMP accumulation, CHO/pKREX21-8): 21 nM | stimulating activity of human β2-adrenergic receptor (in words) ([2]; conclusion from Table 1): quite weak | Emax ([2]; relative maximal response, 10^-5 M (−)-isoproterenol = 100%, read-out: β2-receptor I.A. (intrinsic activity)): 45% | EC50 ([3]; cAMP accumulation, CHO/pKREX23-30): 3.5 nM | stimulating activity of human β1-adrenergic receptor (in words) ([3]; conclusion from Table 1): quite weak | Emax ([3]; relative maximal response, 10^-5 M (−)-isoproterenol = 100%, read-out: β1-receptor I.A. (intrinsic activity)): 83%
